Experimental data published in ChEMBL document CHEMBL3885881, “DrugMatrix”.

Organism: Rattus norvegicus
Experiment: DrugMatrix - Regimen: Daily Repeat
Format: toxicity, organism-based, Sprague-Dawley
Design: regimen Daily Repeat, gender Male, age 6-8 weeks
Details: in vivo, sc, route subcutaneous, […]; for ABSOLUTE BASOPHIL / ABSOLUTE EOSINOPHIL / ABSOLUTE LYMPHOCYTE / ABSOLUTE MONOCYTE / ABSOLUTE SEGMENTED NEUTROPHIL / BASOPHIL / EOSINOPHIL / ERYTHROCYTE COUNT / HEMATOCRIT / HEMOGLOBIN / LEUKOCYTE COUNT / LYMPHOCYTE / MEAN CORPUSCULAR HEMOGLOBIN / MEAN CORPUSCULAR HEMOGLOBIN CONCENTRATION / MEAN CORPUSCULAR VOLUME / MONOCYTE / NEUTROPHIL / NUCLEATED RED BLOOD CELLS / PLATELET COUNT: tissue Blood; for ALANINE AMINOTRANSFERASE / ALBUMIN / ALKALINE PHOSPHATASE / ASPARTATE AMINOTRANSFERASE / BLOOD UREA NITROGEN / CARBON DIOXIDE / CHLORIDE / CHOLESTEROL / CREATINE PHOSPHOKINASE / CREATININE / GLUCOSE / LACTATE DEHYDROGENASE / LIPASE / PHOSPHORUS / POTASSIUM / SODIUM / TOTAL BILIRUBIN / TOTAL PROTEIN / URIC ACID: tissue Plasma
[1] = 0 mg/kg, 72 h, dose level Control, time 3 day
[2] = 0 mg/kg, 120 h, dose level Control, time 5 day
[3] = 2 mg/kg, 72 h, dose level Low, time 3 day

Structure (SMILES): CCC(=O)O[C@]1(C(=O)CCl)[C@@H](C)C[C@H]2[C@@H]3CCC4=CC(=O)C=C[C@]4(C)[C@@]3(F)[C@@H](O)C[C@@]21C [CLOBETASOL PROPIONATE]
- ABSOLUTE BASOPHIL [1]: 0 CELLS/uL
- ABSOLUTE EOSINOPHIL [1]: 42.67 CELLS/uL
- ABSOLUTE LYMPHOCYTE [1]: 10202 CELLS/uL
- ABSOLUTE MONOCYTE [1]: 261.5 CELLS/uL
- ABSOLUTE SEGMENTED NEUTROPHIL [1]: 2193.83 CELLS/uL
- BASOPHIL [1]: 0%
- EOSINOPHIL [1]: 0.33%
- ERYTHROCYTE COUNT [1]: 5.63 x10E6/uL
- HEMATOCRIT [1]: 35.35%
- HEMOGLOBIN [1]: 13.07 G/DL
- LEUKOCYTE COUNT [1]: 12.7 x10E3/uL
- LYMPHOCYTE [1]: 81.17%
- MEAN CORPUSCULAR HEMOGLOBIN [1]: 23.23 pg
- MEAN CORPUSCULAR HEMOGLOBIN CONCENTRATION [1]: 36.97 G/DL
- MEAN CORPUSCULAR VOLUME [1]: 62.82 fL
- MONOCYTE [1]: 2%
- NEUTROPHIL [1]: 16.5%
- NUCLEATED RED BLOOD CELLS [1]: 0 /100WBC
- PLATELET COUNT [1]: 1180.33 x10E3/uL
- ALANINE AMINOTRANSFERASE [1]: 48.67 u/L
- ALBUMIN [1]: 4.08 G/DL
- ALKALINE PHOSPHATASE [1]: 360.67 u/L
- ASPARTATE AMINOTRANSFERASE [1]: 85.5 u/L
- BLOOD UREA NITROGEN [1]: 17.83 mg/dL
- CARBON DIOXIDE [1]: 26.17 mmol/L
- CHLORIDE [1]: 101.83 MEQ/L
- CHOLESTEROL [1]: 71 mg/dL
- CREATINE PHOSPHOKINASE [1]: 515.17 u/L
- CREATININE [1]: 0.22 mg/dL
- GLUCOSE [1]: 192.5 mg/dL
- LACTATE DEHYDROGENASE [1]: 214.67 u/L
- LIPASE [1]: 8.5 u/L
- PHOSPHORUS [1]: 12.95 mg/dL
- POTASSIUM [1]: 6.39 MEQ/L
- SODIUM [1]: 142.38 MEQ/L
- TOTAL BILIRUBIN [1]: 0.18 mg/dL
- TOTAL PROTEIN [1]: 5.95 G/DL
- URIC ACID [1]: 1.83 mg/dL
- ABSOLUTE BASOPHIL [2]: 0 CELLS/uL
- ABSOLUTE EOSINOPHIL [2]: 188.5 CELLS/uL
- ABSOLUTE LYMPHOCYTE [2]: 12360.83 CELLS/uL
- ABSOLUTE MONOCYTE [2]: 64.33 CELLS/uL
- ABSOLUTE SEGMENTED NEUTROPHIL [2]: 1986.33 CELLS/uL
- BASOPHIL [2]: 0%
- EOSINOPHIL [2]: 1.33%
- ERYTHROCYTE COUNT [2]: 5.52 x10E6/uL
- HEMATOCRIT [2]: 35.82%
- HEMOGLOBIN [2]: 13.25 G/DL
- LEUKOCYTE COUNT [2]: 14.6 x10E3/uL
- LYMPHOCYTE [2]: 84.5%
- MEAN CORPUSCULAR HEMOGLOBIN [2]: 24.05 pg
- MEAN CORPUSCULAR HEMOGLOBIN CONCENTRATION [2]: 36.98 G/DL
- MEAN CORPUSCULAR VOLUME [2]: 64.97 fL
- MONOCYTE [2]: 0.5%
- NEUTROPHIL [2]: 13.67%
- NUCLEATED RED BLOOD CELLS [2]: 0 /100WBC
- PLATELET COUNT [2]: 1297.83 x10E3/uL
- ALANINE AMINOTRANSFERASE [2]: 51.17 u/L
- ALBUMIN [2]: 4.08 G/DL
- ALKALINE PHOSPHATASE [2]: 393.17 u/L
- ASPARTATE AMINOTRANSFERASE [2]: 111 u/L
- BLOOD UREA NITROGEN [2]: 18.17 mg/dL
- CARBON DIOXIDE [2]: 25 mmol/L
- CHLORIDE [2]: 105.17 MEQ/L
- CHOLESTEROL [2]: 65.5 mg/dL
- CREATINE PHOSPHOKINASE [2]: 911.5 u/L
- CREATININE [2]: 0.21 mg/dL
- GLUCOSE [2]: 183 mg/dL
- LACTATE DEHYDROGENASE [2]: 189 u/L
- LIPASE [2]: 8.33 u/L
- PHOSPHORUS [2]: 12.78 mg/dL
- POTASSIUM [2]: 6.05 MEQ/L
- SODIUM [2]: 144.57 MEQ/L
- TOTAL BILIRUBIN [2]: 0.25 mg/dL
- TOTAL PROTEIN [2]: 5.83 G/DL
- URIC ACID [2]: 1.58 mg/dL
- ABSOLUTE BASOPHIL [3]: 0 CELLS/uL
- ABSOLUTE EOSINOPHIL [3]: 0 CELLS/uL
- ABSOLUTE LYMPHOCYTE [3]: 788.33 CELLS/uL
- ABSOLUTE MONOCYTE [3]: 9 CELLS/uL
- ABSOLUTE SEGMENTED NEUTROPHIL [3]: 1836 CELLS/uL
- BASOPHIL [3]: 0%
- EOSINOPHIL [3]: 0%
- ERYTHROCYTE COUNT [3]: 5.93 x10E6/uL
- HEMATOCRIT [3]: 37.1%
- HEMOGLOBIN [3]: 13.23 G/DL
- LEUKOCYTE COUNT [3]: 2.63 x10E3/uL
- LYMPHOCYTE [3]: 30%
- MEAN CORPUSCULAR HEMOGLOBIN [3]: 22.33 pg
- MEAN CORPUSCULAR HEMOGLOBIN CONCENTRATION [3]: 35.67 G/DL
- MEAN CORPUSCULAR VOLUME [3]: 62.57 fL
- MONOCYTE [3]: 0.33%
- NEUTROPHIL [3]: 69.67%
- NUCLEATED RED BLOOD CELLS [3]: 0 /100WBC
- PLATELET COUNT [3]: 1219.67 x10E3/uL
- ALANINE AMINOTRANSFERASE [3]: 121.33 u/L
- ALBUMIN [3]: 4.93 G/DL
- ALKALINE PHOSPHATASE [3]: 505.33 u/L
- ASPARTATE AMINOTRANSFERASE [3]: 281.67 u/L
- BLOOD UREA NITROGEN [3]: 25.67 mg/dL
- CARBON DIOXIDE [3]: 21.33 mmol/L
- CHLORIDE [3]: 99.33 MEQ/L
- CHOLESTEROL [3]: 138.33 mg/dL
- CREATINE PHOSPHOKINASE [3]: 1714.67 u/L
- CREATININE [3]: 0.33 mg/dL
- GLUCOSE [3]: 547 mg/dL
- LACTATE DEHYDROGENASE [3]: 291 u/L
- LIPASE [3]: 10 u/L
- PHOSPHORUS [3]: 12.6 mg/dL
- POTASSIUM [3]: 5.98 MEQ/L
- SODIUM [3]: 140.33 MEQ/L
- TOTAL BILIRUBIN [3]: 0.2 mg/dL
- TOTAL PROTEIN [3]: 7.07 G/DL
- URIC ACID [3]: 2.33 mg/dL
